US5455278A (priority 1994, dated 1995)

Assays:
[1] = Effectiveness of falcarindiol as inhibitor versus pH and aerobic conditions; assay type: cell-based
[2] = Inactivation of falcarindiol by heating; assay type: physicochemical
Escherichia coli = experiment: Inhibitory effect of falcarindiol on E. coli (optical density at 600nm, aerobic); assay type: cell-based; settings: aerobic conditions, 20° C.
L. monocytogenes = experiment: Effect of oxygen on the inhibitory activity of falcarindiol; settings: pH 7.5, 20° C.
Staphylococcus aureus = experiment: Inhibitory effect of falcarindiol on S. aureus (optical density at 600nm, aerobic); assay type: cell-based; settings: aerobic conditions, 20° C.
[3] = tested on: mechanosensitive channels; settings: giant spheroplasts of E. coli, patch clamp
Clostridium botulinum = assay type: cell-based; settings: anaerobic conditions, 20° C.
[4] = Solubility of falcarindiol; assay type: physicochemical
[5] = mice; cited from earlier work
Salmonella typhimurium = experiment: Inhibitory effect of falcarindiol on S. typhimurium (optical density at 600nm, aerobic); assay type: cell-based; settings: aerobic conditions, 20° C.

With C=CC(O)C#CC#CC(O)C=CCCCCCCC (stereo not shown) [falcarindiol] the “activity under aerobic conditions” value ([1]; aerobic conditions) was “active under aerobic conditions”, the “pH (acidity) values at which it is effective” value ([1]; pH) was “above 5” and the “stability to heating (activity)” value [2] was “can be inactivated by heating”. For the same compound, the “inhibition of E. coli” value (Escherichia coli) was “inactive”, the “inactivation of L. monocytogenes under aerobic conditions” value (L. monocytogenes; aerobic) was “completely inactivated” and the “lag phase of L. monocytogenes under anaerobic conditions” value (L. monocytogenes; anaerobic) was 15 h. For the same compound, the “inhibition under aerobic versus anaerobic conditions” value (L. monocytogenes) was “much greater under aerobic conditions”, the “inhibition of S. aureus” value (Staphylococcus aureus) was “inhibited” and the “activation of mechanosensitive channels” value [3] was “mechanosensitive channels were activated”. The “inhibition of C. botulinum” value (Clostridium botulinum) was “inhibited”, the “solubility in ethyl acetate” value [4] was “readily soluble” and the LD50 [5] was “about 100 mg/kg of body weight”. The “inhibition of S. typhimurium” value (Salmonella typhimurium) was “inactive”.
